Experimental data: patent publication US20040235939A1, “Synthesis of peloruside a and analogs thereof for use as antitumor agents” (priority 2003, published 2004)

Legend:
SK-MEL-5 = assay: SRB cytotoxicity assay, SK-MEL-5; type: cell-based; details: Homo sapiens
Experimental: (§1) Cells were treated on Days 1, 3, 5, and 7 with 5 μL of media, vehicle, or drug. Peloruside A was resuspended in 0.1% DMSO and added to wells to a final concentration of 0.01, 0.1, 1, 10 or 100 nM. Taxol® (Sigma-Aldrich) was resuspended in 0.1% ethanol and added to cells to a final concentration of 0.1, 1, 10, 100, or 1000 nM.
(§2) The amount of surviving cells was measured using the sulforhodamine B (SRB) assay as previously described (Skehan et al., New colorimetric cytotoxicity assay for anticancer-drug screening. J. Natl. Cancer Inst., 1990. 82(13): p. 1107-12). Cells were fixed on Days 5, 7, and 9 (representing 4, 6, and 8 days of exposure to drug or control, respectively) with 50% (w/v) trichloroacetic acid for 1 hour at 4° C., rinsed thoroughly with water, and dried overnight. The dried cells were stained with 4% sulforhodamine B in 1% acetic acid, rinsed thoroughly and dried overnight. The bound dye was resuspended in 10 mM Tris and the absorbance was read at 492 nm. Percent growth inhibition (GI) was calculated as follows: %GI=(1−(absorbance sample/absorbance vehicle))×100. The absorbance value for each drug concentration and control represents the average of 6 replicates. The %GI was plotted against the log[drug] to generate the growth curves. The concentration of drug required to inhibit growth by 50% (GI50) was calculated for each time point.

Capan-1 = assay: SRB cytotoxicity assay, Capan-1; type: cell-based; details: Homo sapiens
Experimental: as §1, §2

SK-MEL-28 = assay: SRB cytotoxicity assay, SK-MEL-28; type: cell-based; details: Homo sapiens
Experimental: as §1, §2

NCI-H2887 = assay: SRB cytotoxicity assay, NCI-H2887; type: cell-based, human
Experimental: as §1, §2

LoVo = assay: SRB cytotoxicity assay, LoVo; type: cell-based; details: Homo sapiens
Experimental: as §1, §2

SK-OV-3 = assay: SRB cytotoxicity assay, SK-OV-3; type: cell-based; details: Homo sapiens
Experimental: as §1, §2

NCI-H460 = assay: SRB cytotoxicity assay, NCI-H460; type: cell-based; details: Homo sapiens
Experimental: as §1, §2

Mia PaCa-2 = assay: SRB cytotoxicity assay, Mia PaCa-2; type: cell-based; details: Homo sapiens
Experimental: as §1, §2

Hep-G2 = assay: SRB cytotoxicity assay, Hep-G2; type: cell-based; details: Homo sapiens
Experimental: as §1, §2

DU-145 = assay: SRB cytotoxicity assay, DU-145; type: cell-based; details: Homo sapiens
Experimental: as §1, §2

HCT-15 = assay: SRB cytotoxicity assay, HCT-15; type: cell-based; details: Homo sapiens
Experimental: as §1, §2

HCT-116 = assay: SRB cytotoxicity assay, HCT-116; type: cell-based; details: Homo sapiens
Experimental: as §1, §2

NCI-H23 = assay: SRB cytotoxicity assay, NCI-H23; type: cell-based; details: Homo sapiens
Experimental: as §1, §2

PC-3 = assay: SRB cytotoxicity assay, PC-3; type: cell-based; details: Homo sapiens
Experimental: as §1, §2

[1] = test system: BSC-1 (Monkey Kidney epithelial) cells; assay: Immunofluorescent staining of tubulin in BSC-1 cells; type: cell-based; details: 200 nM of Taxol® or 50 nM of Peloruside A
CAKI-1 = assay: SRB cytotoxicity assay, CAKI-1; type: cell-based; details: Homo sapiens
Experimental: as §1, §2

MDA-MB-231 = assay: SRB cytotoxicity assay, MDA-MB-231; type: cell-based; details: Homo sapiens
Experimental: as §1, §2

A498 = assay: SRB cytotoxicity assay, A498; type: cell-based; details: Homo sapiens
Experimental: as §1, §2

NCI-H1395 = assay: SRB cytotoxicity assay, NCI-H1395; type: cell-based, human; details: Homo sapiens
Experimental: as §1, §2

ptx10 cells = assay: Cell Titer-Glo cell viability, Taxol-resistant ptx10 cells; details: Homo sapiens, PTX10, 48 h, read-out: cell viability
Experimental: These cell lines have specific amino acid mutations in tubulin that prevent Taxol®-binding. […] Synthetic (+)-Peloruside A was used for the present example.
1A9, ptx10 and ptx22 cells were plated in 96-well plates to approximately 50% confluency. On the next day, Taxol® or Peloruside A was added to each well and incubated for 48 hours. A final concentration of 1, 2, 3, 4, 5, 8, 10, 20, 30, 50, 100, 300, 500, or 1000 nM of Taxol® was used. A final concentration of 10, 20, 30, 40, 50 or 70 nM of Peloruside A was used. Cell viability was measured using the Cell Titer-Glo Luminescent Cell Viability Assay (Promega). FIGS. 80-82 show bar graphs of cell viability at various concentrations of Peloruside A and Taxol®.

SK-HEP-1 = assay: SRB cytotoxicity assay, SK-HEP-1; type: cell-based; details: Homo sapiens
Experimental: as §1, §2

CC[C@H](/C=C(/C)C1C[C@@H](OC)CC(O)C(C)(C)C2(O)OC(C[C@@H](OC)C2O)C[C@@H](OC)[C@H](O)C(=O)O1)CO (single isomer, unassigned; (+)) [Peloruside A, (+)-Peloruside A]
GI50 (SK-MEL-5; SK-MEL-5, 96 h): 9.42 nM
GI50 (SK-MEL-5; SK-MEL-5, 144 h): 1.76 nM
GI50 (SK-MEL-5; SK-MEL-5, 192 h): 2.44 nM
GI50 (Capan-1; CAPAN-1, 96 h): 29.8 nM
GI50 (Capan-1; CAPAN-1, 144 h): 6.8 nM
GI50 (Capan-1; CAPAN-1, 192 h): 5.21 nM
GI50 (SK-MEL-28; SK-MEL-28, 96 h): 23.3 nM
GI50 (SK-MEL-28; SK-MEL-28, 144 h): 7.29 nM
GI50 (SK-MEL-28; SK-MEL-28, 192 h): 2.07 nM
GI50 (NCI-H2887; Homo sapiens, NCI-H2887, 144 h): 674 nM
GI50 (NCI-H2887; Homo sapiens, NCI-H2887, 192 h): 9.15 nM
GI50 (NCI-H2887; NCl-H2887, Lung, 4 Days): 4 Days: Resistant
GI50 (LoVo; 96 h): 11.8 nM
GI50 (LoVo; 144 h): 7.34 nM
GI50 (LoVo; 192 h): 6.14 nM
GI50 (SK-OV-3; SK-OV-3, 96 h): 8.81 nM
GI50 (SK-OV-3; SK-OV-3, 144 h): 8.51 nM
GI50 (SK-OV-3; SK-OV-3, 192 h): 5.77 nM
GI50 (NCI-H460; NCI-H460, 96 h): 8.27 nM
GI50 (NCI-H460; NCI-H460, 144 h): 5.38 nM
GI50 (NCI-H460; NCI-H460, 192 h): 4.77 nM
GI50 (Mia PaCa-2; MIA PaCa-2, 96 h): 9.65 nM
GI50 (Mia PaCa-2; MIA PaCa-2, 144 h): 1.76 nM
GI50 (Mia PaCa-2; MIA PaCa-2, 192 h): 2.44 nM
GI50 (Hep-G2; HepG2, 96 h): 18 nM
GI50 (Hep-G2; HepG2, 144 h): 1.58 nM
GI50 (Hep-G2; HepG2, 192 h): 0.98 nM
GI50 (DU-145; DU-145, 96 h): 9.2 nM
GI50 (DU-145; DU-145, 144 h): 3.25 nM
GI50 (DU-145; DU-145, 192 h): 2.94 nM
GI50 (HCT-15; HCT-15, 96 h): 14.3 nM
GI50 (HCT-15; HCT-15, 144 h): 9.23 nM
GI50 (HCT-15; HCT-15, 192 h): 11.7 nM
GI50 (HCT-116; HCT-116, 96 h): 3.64 nM
GI50 (HCT-116; HCT-116, 144 h): 5.81 nM
GI50 (HCT-116; HCT-116, 192 h): 1.79 nM
GI50 (NCI-H23; NCI-H23, 144 h): 7.11 nM
GI50 (NCI-H23; NCI-H23, 192 h): 4.78 nM
GI50 (PC-3; PC-3, 96 h): 11.6 nM
GI50 (PC-3; PC-3, 144 h): 6.5 nM
GI50 (PC-3; PC-3, 192 h): 2.46 nM
formation of a bipolar spindle [1]: inhibits the formation of a bipolar spindle
GI50 (CAKI-1; CAKI-1, 96 h): 12.5 nM
GI50 (CAKI-1; CAKI-1, 144 h): 3.97 nM
GI50 (CAKI-1; CAKI-1, 192 h): 3 nM
GI50 (MDA-MB-231; MDA-MB-231, 96 h): 4.02 nM
GI50 (MDA-MB-231; MDA-MB-231, 144 h): 3.4 nM
GI50 (MDA-MB-231; MDA-MB-231, 192 h): 1.53 nM
GI50 (A498; A498, 96 h): 7.3 nM
GI50 (A498; A498, 144 h): 1.9 nM
GI50 (A498; A498, 192 h): 2.75 nM
GI50 (NCI-H1395; NCI-H1395, 96 h): 1010 nM
GI50 (NCI-H1395; NCI-H1395, 144 h): 84.1 nM
GI50 (NCI-H1395; NCI-H1395, 192 h): 15.2 nM
viability at 0.03 µM (ptx10 cells): ~50%
GI50 (SK-HEP-1; SK-HEP1, 96 h): 39.3 nM
GI50 (SK-HEP-1; SK-HEP1, 144 h): 11.2 nM
GI50 (SK-HEP-1; SK-HEP1, 192 h): 1.45 nM
